Measurements from publication PMC11013424, “Evaluation of the Lipophilicity of Angularly Condensed Diquino- and Quinonaphthothiazines as Potential Candidates for New Drugs” (Molecules, 2024).

Key:
[1] = RP-TLC determination of lipophilicity (RM0, logPTLC); conditions: for RM0: RP-18 plate, acetone/TRIS buffer pH 7.4, extrapolated to zero acetone; for LogPTLC: from RM0 by calibration logPTLC = 1.2838 RM0 + 0.2138; for b (slope) / -b: slope of RM = RM0 + b·C; for b (slope): acetone/TRIS buffer pH 7.4; for -b: standards I–V;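 on all read-outs here: silica gel 60 RP-18 F254S plates, TRIS buffer of ionic strength 0.2 M, detection under UV at 254 nm, RF averaged over three or more runs, C in % v/v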
Procedure: RP-TLC was carried out on a silica gel 60 RP-18 F254S 10 cm × 10 cm RP-TLC plate (Merck, Darmstad, Germany). The mobile phase was acetone and an aqueous TRIS (tris(hydroxymethyl)-aminomethane) buffer pH = 7.4 (ionic strength 0.2 M) to meet physiological conditions. […] Angularly condensed diquino- and quinonaphthothiazinethiazines (1–21) and the standards I–V were dissolved in ethanol (2.0 mg/mL). […] Before developing the plates, the chromatographic chambers were saturated with the mobile phase for 0.5 h. After developing the plates and drying in a stream of air, the chromatograms were observed under UV light at λ = 254 nm. At least, three chromatograms were developed for each soluble–solvent combination, and the RF values were averaged. […] The RM0 values were obtained by extrapolation to a zero acetone concentration using the equation RM = RM0 + bC, where C is the concentration (%, v/v) of acetone in the mobile phase.

[2] = parameters: method as in doi:10.1016/j.molstruc.2023.135700, PMID 30981160, doi:10.1016/j.molstruc.2015.06.046, PMID 25750501, doi:10.1016/j.molstruc.2023.136856; conditions: cited from earlier work
[3] = test system: IFNβ expression and IFNβ-dependent downstream genes and proteins; parameters: method as in doi:10.1016/j.molstruc.2023.135700, PMID 30981160, doi:10.1016/j.molstruc.2015.06.046, PMID 25750501, doi:10.1016/j.molstruc.2023.136856; conditions: cited from earlier work
[4] = parameters: method as in doi:10.1016/j.molstruc.2023.136856; conditions: cited from earlier work
[5] = parameters: method as in doi:10.1016/j.molstruc.2023.136856; conditions: cited from earlier work; remark: listed apart in the source
[6] = parameters: method as in doi:10.1016/j.molstruc.2023.136856; conditions: cited from earlier work; remark: listed apart in the source
alpha-glucosidase = test system: alpha-glucosidase; parameters: method as in doi:10.1016/j.molstruc.2023.136856; conditions: cited from earlier work
alpha-amylase = test system: alpha-amylase; parameters: method as in doi:10.1016/j.molstruc.2023.136856; conditions: cited from earlier work

Compound | RM0 [1] | b (slope) [1] | also measured
C#CCN1c2ccc3ccccc3c2Sc2cc3ccccc3nc21 [Compound 17] | 4.29 | −0.0529 | LogPTLC [1]: 5.76
C#CCN1c2cnc3ccccc3c2Sc2cc3ccccc3nc21 [Compound 4] | 3.35 | −0.0383 | 
C=CCN1c2nc3ccccc3cc2Sc2ccc3cccnc3c21 [Compound 13] |  | −0.0478 | 
C#CCN1c2ccc3ncccc3c2Sc2cc3ccccc3nc21 [Compound 8] | 3.96 | −0.0539 | LogPTLC [1]: 5.34
Clc1ccc(C(c2ccc(Cl)cc2)C(Cl)(Cl)Cl)cc1 [Standard V, p,p’-DDT, reference compound] | 4.69 |  | LogPTLC [1]: 6.24; -b [1]: 0.0564
C=CCN1c2cnc3ccccc3c2Sc2cc3ccccc3nc21 [Compound 3] | 4.30 | −0.058 | 
6-chloro-ethylureidoethyldiquinothiazine |  |  | activity in in vivo models [2]: suppressive and anti-inflammatory activities; inhibition of IFNβ expression and IFNβ-dependent downstream genes and proteins [3]: inhibitory activity
C=CCN1c2nc3ccccc3cc2Sc2ccc3ccccc3c21 [Compound 20, 14-allylquinonaphthothiazine] | 4.34 | −0.0548 | 
CN1c2nc3ccccc3cc2Sc2ccc3ccccc3c21 [Compound 19] | 4.18 | −0.0538 | LogPTLC [1]: 5.58
CN1c2nc3ccccc3cc2Sc2ccc3cccnc3c21 [Compound 12] | 4.21 | −0.0576 | 
CC(=O)Nc1ccccc1 [Standard I, acetanilide, reference compound] | 0.78 |  | LogPTLC [1]: 1.21; -b [1]: 0.0162
CN1c2ccc3ccccc3c2Sc2cc3ccccc3nc21 [Compound 15] | 4.49 | −0.0527 | 
CN1c2ccc3ncccc3c2Sc2cc3ccccc3nc21 [Compound 6] | 4.24 | −0.0582 | 
CN1c2cnc3ccccc3c2Sc2cc3ccccc3nc21 [Compound 2] | 4.14 | −0.0503 | 
c1ccc2nc3c(cc2c1)Sc1ccc2ccccc2c1N3 [Compound 18] | 3.81 | −0.0484 | 
CN1c2nc3ccccc3cc2Sc2ccc3ncccc3c21 [Compound 10] | 4.37 | −0.0540 | 
c1ccc2nc3c(cc2c1)Sc1ccc2ncccc2c1N3 [Compound 9] | 3.69 | −0.0498 | free radical scavenging effect [4]: strong; lipid peroxidation effect [5]: strong; ion chelating effect [6]: strong; alpha-glucosidase activity inhibition (alpha-glucosidase): inhibited; alpha-amylase activity inhibition (alpha-amylase): inhibited
c1ccc2nc3c(cc2c1)Sc1ccc2cccnc2c1N3 [Compound 11] | 3.48 | −0.0462 | free radical scavenging effect [4]: strong; lipid peroxidation effect [5]: strong; ion chelating effect [6]: strong; alpha-glucosidase activity inhibition (alpha-glucosidase): inhibited; alpha-amylase activity inhibition (alpha-amylase): inhibited; LogPTLC [1]: 4.72
C#CCN1c2nc3ccccc3cc2Sc2ccc3ccccc3c21 [Compound 21] | 4.09 | −0.0507 | 
O=C(O)c1ccccc1 [Standard II, benzoic acid, reference compound] | 1.16 |  | -b [1]: 0.0247
C=CCN1c2ccc3ncccc3c2Sc2cc3ccccc3nc21 [Compound 7] | 4.46 | −0.0534 | 
c1ccc2nc3c(cc2c1)Sc1c(ccc2ccccc12)N3 [Compound 14] | 4.24 | −0.0573 | LogPTLC [1]: 5.69
c1ccc2nc3c(cc2c1)Sc1c(ccc2ncccc12)N3 [Compound 5] | 3.72 | −0.0459 | 
c1ccc2nc3c(cc2c1)Sc1c(cnc2ccccc12)N3 [Compound 1, 7H-diquino[3,2-b;3′,4′-e]thiazine] | 3.15 | −0.0383 | free radical scavenging effect [4]: strong; lipid peroxidation effect [5]: strong; ion chelating effect [6]: strong; alpha-glucosidase activity inhibition (alpha-glucosidase): inhibited; alpha-amylase activity inhibition (alpha-amylase): inhibited
